Holding throughout (assay type): cell-based
Assay [1] deals with TNF-α release stimulated by diprovocim-1 (3). Briefly: antagonist test: inhibition of the activity of diprovocim-1 (3) on co-administration. The note with it: co-administered at 5 μM.
Another assay relates to mouse macrophages. In words: stimulated release of TNF-α from mouse macrophages. An outline of the steps: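 EC50 derived from dose-response curves for stimulated TNF-α release from mouse macrophages.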
The test system of assay [2] is differentiated human THP-1 cells. In words: stimulated release of TNF-α from differentiated human THP-1 cells (ELISA, dose-response). An outline of the steps:
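Human THP-1 cells were PMA-differentiated toward macrophages, and stimulated TNF-α release was measured by ELISA. EC50 values were taken from dose-response curves.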
In general terms: ELISA stands for enzyme-linked immunosorbent assay.

The structures appear in SMILES notation. Read-outs that look alike come from different tables or passages of the source.

For `O=C(NCCc1ccccc1)[C@@H]1CN(C(=O)c2ccc(C(=O)N3C[C@@H](C(=O)NCCc4ccccc4)[C@H](C(=O)NCCc4ccccc4)C3)cc2)C[C@H]1C(=O)NCCc1ccccc1` [Compound 8, trans,trans-1,1′-Terephthaloylbis-(N^3, N^4-diphenethylpyrrolidine-3,4-dicarboxamide)], the “antagonist activity, inhibiting the activity of diprovocim-1 (3)” value in assay [1] was “incapable of acting as an antagonist”. Besides, the EC50 in the assay with mouse macrophages (Mus musculus, Macrophage, read-out: EC50, stimulated release of TNF-α from mouse macrophages) was more than 5000 nM; in assay [2] (Homo sapiens, THP-1, running text, read-out: EC50, stimulated release of TNF-α from differentiated human THP-1 cells), more than 5000 nM. Further, the “activity in stimulating TNF-α release from human THP-1 cells (in words)” value in assay [2] (tested up to 5 μM where stated) was “inactive”.

`O=C(NCCc1ccc(F)cc1)C1CN(C(=O)COCC(=O)N2CC(C(=O)NCCc3ccc(F)cc3)C(C(=O)NCCc3ccc(F)cc3)C2)CC1C(=O)NCCc1ccc(F)cc1` [Compound 105, (3S,3′S,4S,4′S)-1,1′-(2,2′-Oxybis(acetyl))bis-(N^3,N^4-bis(4-fluorophenethyl)pyrrolidine-3,4-dicarboxamide)]: the EC50 in the assay on mouse macrophages (Table 7, TNF-α release from mouse macrophages, read-out: EC50 (nM) (mouse)) is more than 5000 nM; in assay [2] (Table 7, TNF-α release from human THP-1 cells, read-out: EC50 (nM) (THP-1)), more than 5000 nM.

For the molecule `COc1cc(C(=O)N2C[C@@H](C(=O)N[C@H]3C[C@@H]3c3ccccc3)[C@H](C(=O)N[C@H]3C[C@@H]3c3ccccc3)C2)ccc1C(=O)N1C[C@@H](C(=O)N[C@H]2C[C@@H]2c2ccccc2)[C@H](C(=O)N[C@H]2C[C@@H]2c2ccccc2)C1` [Compound 57, (3S,3′S,4S,4′S)-1,1′-(2-Methoxy-terephthaloyl)-bis(N^3,N^4-bis((1S,2R)-2-phenylcyclopropyl)-pyrrolidine-3,4-dicarboxamide)], the EC50 in the assay with mouse macrophages (Macrophage, Table 3, TNF-α release from mouse macrophages, read-out: EC50 (nM) (mouse)) amounted to 250 nM; in assay [2] (Homo sapiens, THP-1, Table 3, TNF-α release from human THP-1 cells, read-out: EC50 (nM) (THP-1)) it was 30 nM.

For the molecule `O=C(NCCc1ccc(F)cc1)[C@H]1CN(C(=O)c2ccc(C(=O)N3C[C@@H](C(=O)N[C@H]4C[C@@H]4c4ccccc4)[C@H](C(=O)N[C@H]4C[C@@H]4c4ccccc4)C3)cc2)C[C@@H]1C(=O)NCCc1ccc(F)cc1` [Compound 115], in the assay on mouse macrophages (tested up to 5 μM where stated), the “activity in stimulating TNF-α release from mouse macrophages (in words)” value is “inactive”. Besides, the “fold less active than 114 in human THP-1 cells” value in assay [2] (human THP-1 cells) is reported as 5 fold.

For orientation: EC50 means the concentration giving half of the maximal effect.

The record behind these values is patent US11040959B2, “Diprovocims: a new and potent class of TLR agonists” (The Scripps Research Institute, priority 2016, dated 2021).
